Results as given in paper PMC8000724, “Trans-Epithelial Transport, Metabolism, and Biological Activity Assessment of the Multi-Target Lupin Peptide [sequence] (P5) and Its Metabolite [sequence] (P5-Met)” (Nutrients, 2021).
pIC50: −log10 of the molar value. No end group written: not given here.

Legend:
[1] = target: T1, HMGCoAR (catalytic domain) (Homo sapiens, UniProt P04035); experiment: HMGCoAR activity assay; format: biochemical
T1 construct: finally the HMGCoAR (catalytic domain) (2 µL); purchased Sigma-Aldrich
T1 sequence (P04035 340-888 limits assumed): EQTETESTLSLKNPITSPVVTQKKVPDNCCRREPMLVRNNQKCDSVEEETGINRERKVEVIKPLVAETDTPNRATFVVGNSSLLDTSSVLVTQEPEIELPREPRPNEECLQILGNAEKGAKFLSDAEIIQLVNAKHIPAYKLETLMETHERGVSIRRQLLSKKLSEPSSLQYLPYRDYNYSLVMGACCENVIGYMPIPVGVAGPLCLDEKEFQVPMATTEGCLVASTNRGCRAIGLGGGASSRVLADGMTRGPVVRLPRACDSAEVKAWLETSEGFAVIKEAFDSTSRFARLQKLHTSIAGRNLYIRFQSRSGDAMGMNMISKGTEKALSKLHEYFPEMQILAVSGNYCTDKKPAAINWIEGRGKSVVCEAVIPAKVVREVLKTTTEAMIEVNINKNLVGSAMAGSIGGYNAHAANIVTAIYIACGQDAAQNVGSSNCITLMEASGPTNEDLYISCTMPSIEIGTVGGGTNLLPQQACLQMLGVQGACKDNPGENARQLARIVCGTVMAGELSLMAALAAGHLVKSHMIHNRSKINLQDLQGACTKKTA
Method: The experiments were carried out following the manufacturer instructions and optimized protocol. The assay buffer, NADPH, substrate solution, and HMGCoAR were provided in the HMGCoAR Assay Kit (Sigma Aldrich SRL, Milan, Italy). The experiments were carried out following the manufacturer instructions at 37 °C. In particular, each reaction (200 µL) was prepared adding the reagents in the following order: 1× assay buffer, a 10–500 µM doses of P5 and P5-met or vehicle (C), the NADPH (4 µL), the substrate solution (12 µL), and finally the HMGCoAR (catalytic domain) (2 µL). Subsequently, the samples were mixed and the absorbance at 340 nm read by the microplate reader Synergy H1 (Winooski, VT, USA) at time 0 and 10 min. The HMGCoAR-dependent oxidation of NADPH and the inhibition properties of peptides were measured by absorbance reduction, which is directly proportional to enzyme activity.

[2] = test system: differentiated Caco-2 cells; experiment: Trans-epithelial transport across differentiated Caco-2 cell monolayer; format: in vitro ADME, human
Method: Human intestinal Caco-2 cells, obtained from INSERM (Paris, France), where cultured according to a published protocol. For differentiation, they were seeded on polycarbonate filters, 12 mm diameter, 0.4 µm pore diameter (Transwell, Corning Inc., Lowell, MA, US) at a 3.5 × 10^5 cells/cm^2 density in complete medium supplemented with 10% FBS in both AP and BL compartments for 2 d to allow the formation of a confluent cell monolayer. Starting from day three after seeding, cells were transferred to FBS-free medium in both compartments, supplemented with ITS (final concentration 10 mg/L insulin (I), 5.5 mg/L transferrin (T), 6.7 μg/L sodium selenite (S); GIBCO-Invitrogen, San Giuliano Milanese, Italy) only in the basolateral (BL) compartment, and allowed to differentiate for 18–21 days with regular medium changes three times weekly.
The transepithelial electrical resistance (TEER) of differentiated Caco-2 cells was measured at 37 °C using the voltmeter apparatus Millicell (Millipore Co., Billerica, MA, USA), immediately before and at the end of the transport experiments. In addition, at the end of transport experiments, cells were incubated from the AP side with 1 mM phenol-red in PBS containing Ca^++ (0.9 mM) and Mg^++ (0.5 mM) for 1 h at 37 °C, to monitor the paracellular permeability of the cell monolayer. The BL solutions were then collected and NaOH (70 µL, 0.1 N) was added before reading the absorbance at 560 nm by a microplate reader Synergy H1 from Biotek (Winooski, VT, USA). Phenol-red passage was quantified using a standard phenol-red curve. Only filters showing TEER values and phenol red passages similar to untreated control cells were considered for peptide transport analysis.
(§1) Prior to experiments, the cell monolayer integrity and differentiation were checked by TEER measurement as described in detail above. Peptide trans-epithelial passage was assayed in differentiated Caco-2 cells in transport buffer solution (137 mM NaCl, 5.36 mM KCl, 1.26 mM CaCl2, and 1.1 mM MgCl2, 5.5 mM glucose) according to previously described conditions. In order to reproduce the pH conditions existing in vivo in the small intestinal mucosa, the apical (AP) solutions were maintained at pH 6.0 (buffered with 10 mM morpholinoethane sulfonic acid), and the basolateral (BL)solutions were maintained at pH 7.4 (buffered with 10 mM […]). Prior to transport experiments, cells were washed twice with 500 µL PBS containing Ca^++ and Mg^++. Peptide transportation by mature Caco-2 cells was assayed by loading the AP compartment with P5 alone, in mixture with […] (P3) and […] (P7), and/or P5-met (500 μM) in the AP transport solution (500 µL) and the BL compartment with the BL transport solution (700 µL). The plates were incubated at 37 °C and the BL solutions were collected at different time points (i.e., 15, 30, 60, 90, and 120 min) and replaced with fresh solutions pre-warmed at 37 °C. All BL and AP solutions collected at the end of the transport experiment were stored at −80 °C prior to analysis. Three independent transport experiments were performed, each in duplicate. In order to assess the involvement of transcytotic process in peptides passage, parallel transport experiments were performed in the presence of 500 nM wortmannin in both the AP and BL compartment, over 60 min incubation time.
The medium collected at the end of transport experiments from AP and BL chambers (500 µL and 700 µL, respectively) were freeze-dried and residues were solubilized in HPLC water (100 µL). Samples were desalted with C18 resin ZipTip by using 80% ACN, 0.1% FA as eluent (Millipore Corporation, Bedford, MA, USA). Each sample was lyophilized under speed-vacuum for 5 h at 30°C and re-dissolved in 50 μL (0.1% formic acid), before MS analysis. Purified BL samples were analyzed on a SL IT mass spectrometer interfaced with a HPLC- Chip Cube source (Agilent Technologies, Palo Alto, CA, USA). […]

[3] = test system: differentiated Caco-2 cells (AP membrane peptidases); experiment: Metabolites of P5 produced by Caco-2 cell peptidases, MS analysis of AP solutions; format: in vitro ADME, human; design: key to Metabolite of P5 identified in the AP compartment: Mixture / Metabolite of P5 identified in the AP compartment: Alone: x, detected; n.d., not detected; conditions: P5 incubated in mixture with P3 and P7 (500 μM each), Caco-2, end of incubation 120 min
Method: as §1
The medium collected at the end of transport experiments from AP and BL chambers (500 µL and 700 µL, respectively) were freeze-dried and residues were solubilized in HPLC water (100 µL). Samples were desalted with C18 resin ZipTip by using 80% ACN, 0.1% FA as eluent (Millipore Corporation, Bedford, MA, USA). Each sample was lyophilized under speed-vacuum for 5 h at 30°C and re-dissolved in 50 μL (0.1% formic acid), before MS analysis. Purified BL samples were analyzed on a SL IT mass spectrometer interfaced with a HPLC- Chip Cube source (Agilent Technologies, Palo Alto, CA, USA). Data were processed with MSD Trap control 4.2, and Data analysis 4.2 version (Agilent Technologies, Palo Alto, CA, USA). The chromatographic separation was performed using a 1200 HPLC system equipped with a binary pump. […] Specifically, The monitored MRM transitions of P5-met were from the mono-charged precursor ion [M^+H]^+ (m/z 882.43) to product-ions m/z 678.3 and 407.1, respectively. […]

Question: What does the source list for LILPKHSDAD [Peptide P5]?
Answer: pIC50 ([1]; 10-500 µM peptide, 37 °C, NADPH absorbance 340 nm at 0 and 10 min): 3.83; Effect of the transcytosis inhibitor wortmannin on transport across Caco-2 cells ([2]; 500 nM wortmannin in AP and BL compartments, 60 min, HPLC-Chip MS of BL compartment): significantly impairs the transport; Amount in BL compartment, mixture versus alone ([2]; Caco-2 AP to BL, 2 h, 500 μM): about 3.5 fold; Transport rate across Caco-2 monolayer ([2]; in mixture with other lupin peptides (P3, P7), Caco-2 AP to BL, 500 μM): 8.9 ± 0.4 ng/(mL × min); Amount in the BL compartment at the end of incubation (2 h) ([2]; tested alone, 500 μM in AP, Caco-2 AP to BL, 2 h, conversion of the μg value): 0.271 nmol; Amount in the BL compartment at the end of incubation (2 h) ([2]; tested alone, 500 μM in AP, Caco-2 AP to BL, AP pH 6.0 / BL pH 7.4, 37 °C, 2 h, HPLC-Chip MS, mean ± SD): 0.3 ± 0.02 µg; Amount in the BL compartment after 60 min ([2]; tested alone, 500 μM in AP, Caco-2 AP to BL, AP pH 6.0 / BL pH 7.4, 37 °C, HPLC-Chip MS, mean ± SD): 0.20 ± 0.02 µg; Transport rate across Caco-2 monolayer ([2]; tested alone, Caco-2 AP to BL, 500 μM): 1.8 ± 0.3 ng/(mL × min); Amount in the BL compartment at the end of incubation (2 h) ([2]; tested in mixture with P3 and P7, each 500 μM in AP, Caco-2 AP to BL, 2 h, conversion of the μg value): 0.99 nmol; Amount in the BL compartment at the end of incubation (2 h) ([2]; tested in mixture with P3 and P7, each 500 μM in AP, Caco-2 AP to BL, AP pH 6.0 / BL pH 7.4, 37 °C, 2 h, HPLC-Chip MS, mean ± SD): 1.1 ± 0.2 µg

Question: “ILPKHSDAD [Peptide P5-frag, minor metabolite of P5, loss of the N-terminal leucine]” was tested. Which “Metabolite of P5 identified in the AP compartment: Mixture” value [3] did it give?
Answer: x

Question: How did the “Reduction of HMGCoAR enzyme activity” value ([1]; 1.0 µM, positive control) turn out when CC[C@H](C)C(=O)O[C@H]1C[C@H](O)C=C2C=C[C@H](C)[C@H](CC[C@@H](O)C[C@@H](O)CC(=O)O)[C@H]21 [pravastatin, reference compound] was run?
Answer: 82.0%
